Where a name gives a salt, the structure may show the parent alone.
| flash point | SMILES |
| --- | --- |
| 93.00 °C | CCOC(=O)CC(=O)OCC [diethyl propanedioate] |
| 163.00 °C | CCCCCCOC(=O)CCCCC(=O)OCCCCCC [dihexyl hexanedioate] |
| 204.00 °C | CCCCCCOC(=O)CCCCCCCC(=O)OCCCCCC [dihexyl nonanedioate] |
| 138.00 °C | COC(=O)c1cccc(C(=O)OC)c1 [dimethyl benzene-1,3-dicarboxylate] |
| 153.00 °C | COC(=O)c1ccc(C(=O)OC)cc1 [dimethyl benzene-1,4-dicarboxylate] |
| 107.00 °C | COC(=O)CCCCC(=O)OC [dimethyl hexanedioate] |
| 196.00 °C | CCCCCCCCOC(=O)CCCCC(=O)OCCCCCCCC [dioctyl hexanedioate] |
| 93.00 °C | CCCOC(=O)c1ccc(C(=O)OCCC)nc1 [dipropyl pyridine-2,5-dicarboxylate] |
| 100.00 °C | C=CCCCCCCCCCC [dodec-1-ene] |
| 127.00 °C | CCCCCCCCCCCCO [dodecan-1-ol] |
| 88.00 °C | CCCCCCCCCCCCS [dodecane-1-thiol] |
| 135.00 °C | CCCCCCCCCCCCc1ccccc1 [dodecylbenzene] |
| 34.00 °C | NCCN [ethane-1,2-diamine] |
| 111.00 °C | OCCO [ethane-1,2-diol] |
| -135.00 °C | CC [ethane] |
| 20.00 °C | C=COC(=O)CCC [ethenyl butanoate] |
| 110.00 °C | CCOC(=O)CC#N [ethyl 2-cyanoacetate] |
| 59.00 °C | CCOCCC(=O)OCC [ethyl 3-ethoxypropanoate] |
| 57.00 °C | CCOC(=O)CC(C)=O [ethyl 3-oxobutanoate] |
| 224.00 °C | CCOC(=O)NCCOc1ccc(Oc2ccccc2)cc1 [ethyl N-[2-(4-phenoxyphenoxy)ethyl]carbamate] |
| -4.00 °C | CCOC(C)=O [ethyl acetate] |
| 116.00 °C | CCOP(=O)(O)O [ethyl dihydrogen phosphate] |
| -20.00 °C | CCOC=O [ethyl formate] |
| 15.00 °C | CCc1ccccc1 [ethylbenzene] |
| -15.00 °C | Fc1ccccc1 [fluorobenzene] |
| 60.00 °C | C=O [formaldehyde] |

| SMILES | flash point |
| --- | --- |
| CCCCCCCCCCOC(=O)c1ccccc1C(=O)OCCCCCCCCCC [didecyl benzene-1,2-dicarboxylate] | 232.00 °C |
| CCCCCCOC(=O)c1ccccc1C(=O)OCCCCCC [dihexyl benzene-1,2-dicarboxylate] | 177.00 °C |
| COC(=O)c1ccccc1C(=O)OC [dimethyl benzene-1,2-dicarboxylate] | 146.00 °C |
| [CH3][Hg][CH3] [dimethylmercury] | 5.00 °C |
| CCCCCCCCCOC(=O)c1ccccc1C(=O)OCCCCCCCCC [dinonyl benzene-1,2-dicarboxylate] | 216.00 °C |
| CCCCCOC(=O)c1ccccc1C(=O)OCCCCC [dipentyl benzene-1,2-dicarboxylate] | 181.00 °C |
| CCCCCCCCCCCCCOC(=O)c1ccccc1C(=O)OCCCCCCCCCCCCC [ditridecyl benzene-1,2-dicarboxylate] | 238.00 °C |
| CC(=O)OO [ethaneperoxoic acid] | 41.00 °C |
| C=COC(C)=O [ethenyl acetate] | -8.00 °C |
| CCOCC.FB(F)F [ethoxyethane;trifluoroborane] | 64.00 °C |
| CCOC(=O)CCl [ethyl 2-chloroacetate] | 38.00 °C |
| CCOC(=O)Cc1ccccc1 [ethyl 2-phenylacetate] | 99.00 °C |
| CCOS(C)(=O)=O [ethyl methanesulfonate] | 100.00 °C |
| C=CC(=O)OCC [ethyl prop-2-enoate] | 9.00 °C |
| C=O.O=C=Nc1ccccc1 [formaldehyde;isocyanatobenzene] | 218.00 °C |
